In patent US7968526B2, “Antisense oligonucleotides directed to ribonucleotide reductase R2 and uses thereof in the treatment of cancer” (Lorus Therapeutics Inc., priority 2003, dated 2011):

Assays:
[1] = system: glioblastoma-astrocytoma (U-87 MG); experiment: Human glioblastoma-astrocytoma tumour growth in mice; assay type: in vivo, human cells in mice
Description: Unless noted otherwise in this Example human tumour cell lines were purchased from the American Type Culture Collections (ATCC) (Rockville, Md.). Human colon adenocarcinoma (HT-29), non-small cell lung carcinoma (NCI-H460), melanoma (A2058), breast adenocarcinoma (MDA-MB-231), pancreatic carcinoma (AsPC-1 and SU.86.86), glioblastoma-astrocytoma (U-87 MG), renal carcinoma (A498 and Caki-1), ovarian carcinoma (SK-OV-3), cervical carcinoma (HeLa S3), prostate carcinoma (PC-3), bladder carcinoma (T24), Burkitt's lymphoma (Raji) and hepatocellular carcinoma (Hep G2) were maintained, according to ATCC recommendation, in α-MEM, RPMI1640, or McCoy's 5a medium (Invitrogen Canada Inc. Burlington, Ontario) supplemented with 10-20% fetal calf serum (FCS) at 37° C. in a humidified atmosphere containing 5% CO2. Normal human cell lines, WI-38 (human lung fibroblast) and HUVEC (human umbilical vein endothelial cells) and murine R3 (fibrosarcoma) and L (Ltk^− fibroblast) cells were maintained as mentioned above. […]
FIG. 29 summarizes the results of a statistical analysis of data compiled from a number of experiments in which the effect of SEQ ID NO:1 on tumour growth was assessed in human tumour cell xenografts in mice. […]

[2] = system: DU145 human prostatic cancer cells; experiment: DU145 prostatic tumour xenograft in SCID mice, combination with mitoxantrone (1.5); assay type: in vivo, human cells in mice
Description: After 52 days the mice were sacrificed and the tumours weighed. […] In both experiments, PC-3 human prostatic cancer cells (1×10^7 cells in 100 μl of PBS) were subcutaneously injected into the right flank of 6-7 weeks old male SCID mice. After the size of tumour reached an approximate volume of 50 mm^3, 14 days post tumour cell injection, SEQ ID NO: 1 was administered by bolus infusion into the tail vein every other day at 10 mg/kg 18 times (FIG. 4A) or 17 times (FIG. 4B), respectively. Control animals received saline alone for the same period. Antitumour effect of SEQ ID NO:1 was further compared to that of mitoxantrone (novantrone) alone or in combination. Mitoxantrone was administered intravenously once at the beginning of the treatments at a dose of 2 mg/kg (FIG. 4A) or once a week for four weeks at a reduced dose of 0.8 mg/kg (FIG. 4B). All treatments were stopped at day 50 (FIG. 4A) or 48 (FIG. 4B), respectively. A day after the last treatment, tumours were excised from the animals and their weights were measured. […] In both experiments, DU145 human prostatic cancer cells (1×10^7 cells in 100 μl of PBS) were subcutaneously injected into the right flank of 6-7 weeks old male SCID mice. After the size of tumour reached an approximate volume of 50 mm^3, 13 (FIG. 5A) or 11 (FIG. 5B) days post tumour cell injection, SEQ ID NO:1 was administered by bolus infusion into the tail vein every other day at 10 mg/kg 15 times (FIG. 5A) or 14 times (FIG. 5B), respectively. Control animals received saline alone for the same period. Antitumour effect of SEQ ID NO:1 was further compared to that of mitoxantrone (novantrone) alone or in combination. Mitoxantrone was administered intravenously once at the beginning of the treatments at a dose of 2 mg/kg (FIG. 5A) or once a week for four weeks at a reduced dose of 0.8 mg/kg (FIG. 5B). All treatments were stopped at day 42 (FIG. 5A) or 38 (FIG. 5B), respectively. A day after the last treatment, tumours were excised from the animals and their weights were measured.

[3] = Tissue distribution in the monkey (CE method); assay type: in vivo
Description: The toxicokinetics and tissue distribution of SEQ ID NO:1 (and related oligonucleotide metabolites obtained from exonuclease-mediated chain shortening) were determined in rats and monkeys. In addition to investigating the pharmacokinetics and tissue distribution of SEQ ID NO:1, the purpose of the studies was to correlate adverse effects in the animal studies to the concentrations of SEQ ID NO:1 (and metabolites) in tissue and blood. A capillary electrophoresis (CE) method was used to measure the concentrations of SEQ ID NO:1 (and metabolites) in plasma and tissues.
The concentrations of SEQ ID NO:1 (and related n+1, n−1 to n−15 oligonucleotide metabolites) in the following rat and monkey tissues were measured by a validated CE method (Southwest Bio-Labs, Inc.): kidney, liver, spleen, heart, lung, bone marrow (rat), lymph nodes (monkey) and brain tissues. The tissue samples were collected from the designated animals as described in the 21-day toxicity studies: rats, administered bolus intravenous injections of SEQ ID NO:1 every other day at 2, 10, or 50 mg/kg; and monkeys administered SEQ ID NO:1 by continuous intravenous infusion at 2, 10, or 50 mg/kg/day.

human whole blood = experiment: Intravenous compatibility assay (haemolysis); assay type: cell-based; conditions: static or dynamic conditions
[4] = 2 mg/kg/day continuous i.v. infusion, Necropsy Day 22
[5] = 10 mg/kg/day continuous i.v. infusion, Necropsy Day 22
[6] = 50 mg/kg/day continuous i.v. infusion, Necropsy Day 22
[7] = 50 mg/kg/day continuous i.v. infusion, Necropsy Day 43

## 5′-GGCTAAATCGCTCCACCAAG-3′ (all phosphorothioate, sugars by position and methylation of C not given here) [SEQ ID NO: 1, fully phosphorothioated antisense oligonucleotide that hybridizes to the coding region of R2 mRNA]
[1]
  Inhibition of tumour weight: ~65%
[2]; DU145 (prostatic), SCID, second of two printed values (two independent experiments), SEQ ID NO:1 10 mg/kg i.v. every other day, mitoxantrone i.v.
  Tumour weight as % of saline control: 41%
[2]; DU145, SCID mice, SEQ ID NO:1 10 mg/kg i.v. every other day 15 times, mitoxantrone 2 mg/kg i.v. once
  Antitumour effect (tumour weight, FIG. 5A): significant delay of tumour growth compared to saline control
[3]
  Rank order of tissue concentrations: kidney>liver>bone marrow>spleen>heart>lung
[3]; [4]
  Mean Concentration SEQ ID NO: 1, Brain: BDL (below detectable limits (1 μg/g rat; 0.2 μg/g monkey))
  Mean Concentration SEQ ID NO: 1, Heart: BDL (below detectable limits (1 μg/g rat; 0.2 μg/g monkey))
  Mean Concentration SEQ ID NO: 1, Kidney: 176.2 µg/g
  Mean Concentration SEQ ID NO: 1, Liver: 137.8 µg/g
  Mean Concentration SEQ ID NO: 1, Lung: BDL (below detectable limits (1 μg/g rat; 0.2 μg/g monkey))
  Mean Concentration SEQ ID NO: 1, Lymph node: 2.2 µg/g
  Mean Concentration SEQ ID NO: 1, Spleen: 17.8 µg/g
  Mean Concentration total metabolites (n + 1 through n − 13), Brain: BDL (below detectable limits (1 μg/g rat; 0.2 μg/g monkey))
  Mean Concentration total metabolites (n + 1 through n − 13), Heart: BDL (below detectable limits (1 μg/g rat; 0.2 μg/g monkey))
  Mean Concentration total metabolites (n + 1 through n − 13), Kidney: 605.8 µg/g
  Mean Concentration total metabolites (n + 1 through n − 13), Liver: 425.7 µg/g
  Mean Concentration total metabolites (n + 1 through n − 13), Lung: BDL (below detectable limits (1 μg/g rat; 0.2 μg/g monkey))
  Mean Concentration total metabolites (n + 1 through n − 13), Lymph node: 21.0 µg/g
  Mean Concentration total metabolites (n + 1 through n − 13), Spleen: 71.4 µg/g
[3]; [5]
  Mean Concentration SEQ ID NO: 1, Brain: BDL (below detectable limits (1 μg/g rat; 0.2 μg/g monkey))
  Mean Concentration SEQ ID NO: 1, Heart: 1.9 µg/g
  Mean Concentration SEQ ID NO: 1, Kidney: 246.5 µg/g
  Mean Concentration SEQ ID NO: 1, Liver: 129.0 µg/g
  Mean Concentration SEQ ID NO: 1, Lung: 1.6 µg/g
  Mean Concentration SEQ ID NO: 1, Lymph node: 13.1 µg/g
  Mean Concentration SEQ ID NO: 1, Spleen: 82.1 µg/g
  Mean Concentration total metabolites (n + 1 through n − 13), Brain: BDL (below detectable limits (1 μg/g rat; 0.2 μg/g monkey))
  Mean Concentration total metabolites (n + 1 through n − 13), Heart: 4.6 µg/g
  Mean Concentration total metabolites (n + 1 through n − 13), Kidney: 886.1 µg/g
  Mean Concentration total metabolites (n + 1 through n − 13), Liver: 486.2 µg/g
  Mean Concentration total metabolites (n + 1 through n − 13), Lung: 4.2 µg/g
  Mean Concentration total metabolites (n + 1 through n − 13), Lymph node: 86.2 µg/g
  Mean Concentration total metabolites (n + 1 through n − 13), Spleen: 198.3 µg/g
[3]; [6]
  Mean Concentration SEQ ID NO: 1, Brain: BDL (below detectable limits (1 μg/g rat; 0.2 μg/g monkey))
  Mean Concentration SEQ ID NO: 1, Heart: 46.3 µg/g
  Mean Concentration SEQ ID NO: 1, Kidney: 1425.2 µg/g
  Mean Concentration SEQ ID NO: 1, Liver: 316.6 µg/g
  Mean Concentration SEQ ID NO: 1, Lung: 39.2 µg/g
  Mean Concentration SEQ ID NO: 1, Lymph node: 253.5 µg/g
  Mean Concentration SEQ ID NO: 1, Spleen: 260.6 µg/g
  Mean Concentration total metabolites (n + 1 through n − 13), Brain: BDL (below detectable limits (1 μg/g rat; 0.2 μg/g monkey))
  Mean Concentration total metabolites (n + 1 through n − 13), Heart: 113.8 µg/g
  Mean Concentration total metabolites (n + 1 through n − 13), Kidney: 3230.8 µg/g
  Mean Concentration total metabolites (n + 1 through n − 13), Liver: 806.6 µg/g
  Mean Concentration total metabolites (n + 1 through n − 13), Lung: 124.0 µg/g
  Mean Concentration total metabolites (n + 1 through n − 13), Lymph node: 801.2 µg/g
  Mean Concentration total metabolites (n + 1 through n − 13), Spleen: 1097 µg/g
[3]; [7]
  Mean Concentration SEQ ID NO: 1, Brain: BDL (below detectable limits (1 μg/g rat; 0.2 μg/g monkey))
  Mean Concentration SEQ ID NO: 1, Heart: 0.5 µg/g
  Mean Concentration SEQ ID NO: 1, Kidney: 1.6 µg/g
  Mean Concentration SEQ ID NO: 1, Liver: 0.9 µg/g
  Mean Concentration SEQ ID NO: 1, Lung: BDL (below detectable limits (1 μg/g rat; 0.2 μg/g monkey))
  Mean Concentration SEQ ID NO: 1, Lymph node: 59.9 µg/g
  Mean Concentration SEQ ID NO: 1, Spleen: 57.2 µg/g
  Mean Concentration total metabolites (n + 1 through n − 13), Brain: BDL (below detectable limits (1 μg/g rat; 0.2 μg/g monkey))
  Mean Concentration total metabolites (n + 1 through n − 13), Heart: 3.5 µg/g
  Mean Concentration total metabolites (n + 1 through n − 13), Kidney: 10.5 µg/g
  Mean Concentration total metabolites (n + 1 through n − 13), Liver: 2.3 µg/g
  Mean Concentration total metabolites (n + 1 through n − 13), Lung: BDL (below detectable limits (1 μg/g rat; 0.2 μg/g monkey))
  Mean Concentration total metabolites (n + 1 through n − 13), Lymph node: 371.3 µg/g
  Mean Concentration total metabolites (n + 1 through n − 13), Spleen: 367.8 µg/g
[3]; lower limit for detection 0.2 μg/g
  Concentrations in the brain: below the limits of detection
Human whole blood
  Haemolytic activity (cell lysis and haemoglobin release): did not cause haemolysis under static or dynamic conditions
